From ChEMBL document CHEMBL1127988, “Differential binding and dopamine uptake activity of cocaine analogues modified at nitrogen” (Bioorg Med Chem Lett, 1994)

Columns and labels:
[1] = target: Sodium-dependent dopamine transporter (Rattus norvegicus, UniProt P23977); assay: Binding affinity to inhibit [3H]mazindol binding in rat corpus striatum P2 synaptosomes; assay type: subcellular
Rattus norvegicus [2] = species on record: Rattus norvegicus; assay: Inhibitory activity towards [3H]dopamine uptake in rat corpus striatum P2 synaptosomes; assay type: functional
[3] = target: Sodium-dependent dopamine transporter (Rattus norvegicus) (UniProt P23977); details: Corpus striatum; 1111 uM
Sequence of Sodium-dependent dopamine transporter (Rattus norvegicus) (P23977 whole entry): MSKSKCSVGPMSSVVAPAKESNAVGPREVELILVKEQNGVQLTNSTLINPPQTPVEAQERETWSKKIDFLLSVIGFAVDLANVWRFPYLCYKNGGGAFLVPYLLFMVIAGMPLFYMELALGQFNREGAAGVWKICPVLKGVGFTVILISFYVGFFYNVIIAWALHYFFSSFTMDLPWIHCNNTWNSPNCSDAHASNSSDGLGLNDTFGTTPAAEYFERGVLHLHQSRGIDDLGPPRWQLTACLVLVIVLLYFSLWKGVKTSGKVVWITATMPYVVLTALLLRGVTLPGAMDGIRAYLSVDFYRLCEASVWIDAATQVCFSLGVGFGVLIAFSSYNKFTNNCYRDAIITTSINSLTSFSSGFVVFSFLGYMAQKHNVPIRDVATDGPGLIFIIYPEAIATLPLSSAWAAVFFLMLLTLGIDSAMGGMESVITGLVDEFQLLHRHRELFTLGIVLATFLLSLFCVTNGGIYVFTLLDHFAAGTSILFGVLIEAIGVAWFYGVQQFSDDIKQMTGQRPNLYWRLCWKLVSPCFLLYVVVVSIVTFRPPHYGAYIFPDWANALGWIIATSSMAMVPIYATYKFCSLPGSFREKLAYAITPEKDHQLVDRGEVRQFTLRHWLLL
Description: Maximum percent inhibition of [3H]mazindol binding in rat corpus striatum P2 synaptosome at 1111 uM

[4] = target: Sodium-dependent dopamine transporter (Rattus norvegicus) (UniProt P23977); assay: Maximum percent inhibition of [3H]mazindol binding in rat corpus striatum P2 synaptosome at 1000 uM; assay type: tissue-based
Rattus norvegicus [5] = species on record: Rattus norvegicus; assay: Maximum percent inhibition of dopamine uptake in rat corpus striatum P2 synaptosome at 1000 uM; assay type: functional

Sequence of Sodium-dependent dopamine transporter (P23977 whole entry): as above

O=C(OC1CC2CCC3C1C(=O)NN23)c1ccccc1 (centres undefined)
Ki [1]: 44.9 µM
Ki (Rattus norvegicus [2]): 115 µM
inhibition [3]: 83%

COC(=O)C1C(OC(=O)c2ccccc2)CC2CCC1N2CC(=O)O (centres undefined)
Ki [1]: 0.38 µM
Ki (Rattus norvegicus [2]): 2.1 µM

COC(=O)C1C(OC(=O)c2ccccc2)CC2CCC1N2[N+](=O)[O-] (centres undefined)
Ki [1]: 7.5 µM
Ki (Rattus norvegicus [2]): 21.2 µM

COC(=O)CN1C2CCC1C(C(=O)OC)C(OC(=O)c1ccccc1)C2 (centres undefined)
Ki [1]: 0.48 µM
Ki (Rattus norvegicus [2]): 1.6 µM

COC(=O)C1C(OC(=O)c2ccccc2)CC2CCC1N2N=O (centres undefined)
inhibition [4]: 82%
Ki [1]: 99.5 µM
Ki (Rattus norvegicus [2]): 232 µM
inhibition (Rattus norvegicus [5]): 77%

COC(=O)C1C(OC(=O)c2ccccc2)CC2CCC1N2CCO (centres undefined)
Ki [1]: 0.7 µM
Ki (Rattus norvegicus [2]): 1.6 µM

COC(=O)C1C(OC(=O)c2ccccc2)CC2CCC1N2NC(C)=O (centres undefined)
inhibition [4]: 42%
Ki [1]: > 1000 µM
Ki (Rattus norvegicus [2]): > 1000 µM
inhibition (Rattus norvegicus [5]): 41%
